Measurements: PMC8151276, “An Integrated Approach toward NanoBRET Tracers for Analysis of GPCR Ligand Engagement” (Molecules, 2021)

Target: T1, F2RL3 (Homo sapiens, UniProt Q96RI0)
T1 construct: purchased Promega (in-house HiBiT-GPCR construct library, NanoBRET)
T1 sequence (Q96RI0 18-385): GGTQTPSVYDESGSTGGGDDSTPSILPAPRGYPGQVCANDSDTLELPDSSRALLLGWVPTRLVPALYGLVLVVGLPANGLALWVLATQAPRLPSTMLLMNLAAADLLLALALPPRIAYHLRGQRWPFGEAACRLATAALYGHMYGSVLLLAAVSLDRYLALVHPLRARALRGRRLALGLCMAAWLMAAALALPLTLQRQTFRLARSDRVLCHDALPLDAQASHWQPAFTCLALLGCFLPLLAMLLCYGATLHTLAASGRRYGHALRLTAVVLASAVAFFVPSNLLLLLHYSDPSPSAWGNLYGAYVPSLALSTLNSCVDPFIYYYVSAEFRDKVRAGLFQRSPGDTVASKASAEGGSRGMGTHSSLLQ
Assay: NanoBRET screen HiBiT-F2RL3 in HEK293
Format: binding
Procedure: Each tracer candidate was screened across the entire library of HiBiT-GPCR constructs using NanoBRET as the detection modality. As depicted in Figure 4A, the specificity of interactions was evaluated through decrease in BRET due to competitive displacement of a bound tracer by excess parental compound. Each tracer was analyzed for binding to each HiBiT-GPCR fusion in the absence and in the presence of competing parental compound. Briefly, HEK293 cells were transfected with HiBiT-GPCR constructs diluted into promoterless DNA to reduce expression and maximize translocation to the cell surface. Each tracer candidate was then screened at concentrations of 1 μM and 0.1 μM across cells expressing these fusions. Cells were treated for 1.5 h with tracer either alone or in the presence of 20 μM competing parental compound (i.e., control). BRET was measured upon addition of purified LgBiT and subsequent complementation with HiBiT genetically fused to a GPCR. The specificity of interactions was assessed through a decrease in BRET signal due to competitive displacement of the bound tracer. To further gauge the robustness of these interactions, the fold response over the control (i.e., BRETtracer/BRETcontrol) was calculated. We chose a 1.5-fold response, which translates to ≥7-fold signal over noise as the minimal threshold required to score an interaction as positive. […]. Below we highlight the screening results obtained for our exemplary fluorescent tracers based on Clozapine, Amitriptyline and AZD1283.
HiBiT-GPCR DNA constructs were diluted in 10 mM Tris pH 8 to a final concentration of 0.01 μg/μL, arrayed in 96-well plates and stored at −20 °C. For transfection, HEK293 cells were suspended in Opti-MEM (without phenol red) supplemented with 2% fetal bovine serum (Seradigm) and 100 units/mL penicillin–streptomycin (Gibco) at a final concentration of 220,000 cells/mL and dispensed into white 96-well plates at 90 μL/well. Subsequent transfections and screens were carried using an Agilent Bravo Automated Liquid Handling Platform. First, the 96-well HiBiT DNA arrays were diluted 25-fold in Opti-MEM (without serum or phenol red) to a final concentration of 0.0004 μg/μL and 20 μL of the diluted DNAs were transferred into new 96-well plates. Next, promoterless carrier DNA (1 μg/μL) was diluted 25-fold (0.04 μg/μL) and then dispensed into the diluted arrays at 20 μL/well. Following brief mixing, Viafect transfection reagent (Promega) diluted 16-fold into Opti-MEM was dispensed into the plates at 40 μL/well. After mixing by pipetting, plates were incubated for 10 min on the pipetting station deck. The DNA-transfection reagent complexes were then added to plates containing cells. To facilitate the screen, 10 μL of DNA-transfection reagent complexes were added in duplicates to the top 4 and bottom 4 rows, resulting in two identical 48-well arrays per plate. Plates with transfected cells were incubated for 18–20 h at 37 °C/5% CO2. A screen of each tracer across the entire library using two different concentrations requires duplicate plates of transfected cells. Depending on the number of tracers being screened, transfections can be scaled up using the same ratios. The next day, for each tracer, four 20× screening solutions in tracer dilution buffer (Promega) were prepared: two duplicates at final concentration of 20 μM and two duplicates at a final concentration of 2 μM. A competing unmodified compound was added to one of each duplicate at a final concentration of 400 μM. The four resulting solutions were diluted 4-fold in Opti-MEM without serum or phenol red to generate 5× solutions (5 µM and 0.5 µM tracer +/− 100 μM competing compound). To screen the library, a BioTek MultiFlo FX liquid dispenser was used to dispense 22.5 µL of tracer solution to the top 4 rows and 22.5 µL tracer + competing compound solution to the 4 bottom rows. Plates were briefly mixed on an orbital shaker and incubated for 1.5 h at room temperature. […]

| SMILES | NanoBRET Fold Response (F2RL3, tracer 0.1μM) | NanoBRET Fold Response (F2RL3, tracer 1μM) | also measured |
| --- | --- | --- | --- |
| O=C(CCOCCOCCOCCOCCNC(=O)CCc1ccc2n1[B-](F)(F)[N+]1=C(c3ccc[nH]3)C=CC1=C2)NCCCN1CCN(C2=Nc3ccccc3Oc3ccc(Cl)cc32)CC1 [Loxapine-a-2-NB590] | 1.00 | 1.02 | – |
| CCCn1c(=O)c2[nH]c(-c3ccc(OCC(=O)NCCNC(=O)CCOCCNC(=O)c4ccc(CNC(=O)CCc5ccc6n5[B-](F)(F)[N+]5=C(c7ccc[nH]7)C=CC5=C6)cc4)cc3)nc2n(CCC)c1=O [XAC-3-NB590] | 0.99 | 1.05 | – |
| CN(C)CCC=C1c2ccccc2CCc2ccc(C(=O)NCCNC(=O)CCOCCOCCOCCOCCNC(=O)CCc3ccc4n3[B-](F)(F)[N+]3=C(c5ccc[nH]5)C=CC3=C4)cc21 [Amitriptyline-a-2-NB590] | – | – | NanoBRET Fold Response (tracer at 0.1μM): 1.00; NanoBRET Fold Response (tracer at 1μM): 1.03 |
| COc1ccccc1N1CCN(CCCCN2C(=O)c3ccc(CNC(=O)CCOCCOCCOCCOCCNC(=O)CCc4ccc5n4[B-](F)(F)[N+]4=C(c6ccc[nH]6)C=CC4=C5)cc3C2=O)CC1 [NAN-190-2-NB590] | 0.99 | 1.01 | – |
| O=C(CCc1ccc2n1[B-](F)(F)[N+]1=C(c3ccc[nH]3)C=CC1=C2)NCc1ccc(C(=O)NCCOCCOCCNCC(O)COc2cccc3ccccc23)cc1 (stereo not shown) [Propranolol-3-NB590] | – | – | NanoBRET Fold Response (F2RL3, 0.1μM): 1.07; NanoBRET Fold Response (F2RL3, 1μM): 1.00 |
| COc1ccccc1N1CCN(CCCCN2C(=O)c3ccc(CNC(=O)CCOCCNC(=O)c4ccc(CNC(=O)CCc5ccc6n5[B-](F)(F)[N+]5=C(c7ccc[nH]7)C=CC5=C6)cc4)cc3C2=O)CC1 [NAN-190-3-NB590] | 1.15 | 0.99 | – |
| O=C(CCc1ccc2n1[B-](F)(F)[N+]1=C(c3ccc[nH]3)C=CC1=C2)NCc1ccc(C(=O)NCCOCCC(=O)N[C@@H]2CC[C@@]3(O)[C@H]4Cc5ccc(O)c6c5[C@@]3(CCN4CC3CC3)[C@H]2O6)cc1 [Naltrexone-3-NB590] | 0.92 | 1.03 | – |
| CCOC(=O)c1cc(C#N)c(N2CCC(C(=O)NS(=O)(=O)Cc3ccccc3/C=C/C(=O)NCCNC(=O)CCc3ccc4n3[B-](F)(F)[N+]3=C(c5ccc[nH]5)C=CC3=C4)CC2)nc1C [AZD1283-1-NB590] | – | – | NanoBRET Fold Response (F2RL3, 0.1μM): 1.04; NanoBRET Fold Response (F2RL3, 1μM): 1.09 |
| COc1ccc2[nH]c(-c3ccc(CNC(=O)CCOCCOCCOCCOCCNC(=O)CCc4ccc5n4[B-](F)(F)[N+]4=C(c6ccc[nH]6)C=CC4=C5)cc3)c(CCNC(C)=O)c2n1 [AzomelatoninICO9-2-NB590] | – | – | NanoBRET Fold Response (0.1μM tracer): 1.05; NanoBRET Fold Response (1μM tracer): 1.04 |
| CC(C)N(CC[C@H](c1ccccc1)c1cc(CCNC(=O)CCOCCOCCOCCOCCNC(=O)CCc2ccc3n2[B-](F)(F)[N+]2=C(c4ccc[nH]4)C=CC2=C3)ccc1O)C(C)C [Tolterodine-2-NB590] | 1.08 | 0.97 | – |
| CN1CCN(C2=Nc3cc(Cl)ccc3N(CC(=O)NCCOCCOCCOCCOCCNC(=O)CCc3ccc4n3[B-](F)(F)[N+]3=C(c5ccc[nH]5)C=CC3=C4)c3ccccc32)CC1 [Clozapine-c-2-NB590] | – | – | NanoBRET Fold Response (F2RL3, 0.1μM tracer): 1.02; NanoBRET Fold Response (F2RL3, 1μM tracer): 0.99 |
| N#CN=C(NCCCOc1cccc(CN2CCCCC2)c1)NCCNC(=O)CCOCCOCCOCCOCCNC(=O)CCc1ccc2n1[B-](F)(F)[N+]1=C(c3ccc[nH]3)C=CC1=C2 [Aminopotentidine-2-NB590] | 0.99 | 1.06 | – |
| COc1ccc2c(n1)c(CCNC(C)=O)cn2CCNC(=O)CCc1ccc2n1[B-](F)(F)[N+]1=C(c3ccc[nH]3)C=CC1=C2 [Azamelatonin-1-NB590] | – | – | NanoBRET Fold Response (0.1μM tracer): 0.98; NanoBRET Fold Response (1μM tracer): 0.86 |
| CC(C)N(CC[C@H](c1ccccc1)c1cc(CCNC(=O)c2ccc(CNC(=O)CCc3ccc4n3[B-](F)(F)[N+]3=C(c5ccc[nH]5)C=CC3=C4)cc2)ccc1O)C(C)C [Tolterodine-BZ-NB590] | 1.03 | 1.06 | – |
| O=C(CCc1ccc2n1[B-](F)(F)[N+]1=C(c3ccc[nH]3)C=CC1=C2)NCCOCCOCCNC(=O)OCCOCCN1CCN(C2=Nc3ccccc3Sc3ccccc32)CC1 [Quetiapine-a-2-NB590] | 1.09 | 0.84 | – |
| Cc1cc2c(s1)Nc1ccccc1N=C2N1CCN(CCCNC(=O)CCOCCOCCOCCOCCNC(=O)CCc2ccc3n2[B-](F)(F)[N+]2=C(c4ccc[nH]4)C=CC2=C3)CC1 [Olanzapine-a-2-NB590] | 1.04 | 0.98 | – |
| CN(C)CCC=C1c2ccccc2CCc2ccc(C(=O)NCCNC(=O)CCOCCOCCOCCOCCNC(=O)CCc3ccc4n3[B-](F)(F)[N+]3=C(c5ccc[nH]5)C=CC3=C4)cc21 [Amitriptyline-b-2-NB590] | – | – | NanoBRET Fold Response (tracer at 0.1μM, listed as amitriptyline-b-2-NB590): 0.94; NanoBRET Fold Response (tracer at 1μM, listed as amitriptyline-b-2-NB590): 1.04 |
| O=C(CCOCCOCCOCCOCCNC(=O)CCc1ccc2n1[B-](F)(F)[N+]1=C(c3ccc[nH]3)C=CC1=C2)NCCCN1CCN(C2=Nc3cc(Cl)ccc3Nc3ccccc32)CC1 [Clozapine-a-2-NB590] | – | – | NanoBRET Fold Response (F2RL3, 0.1μM tracer): 1.02; NanoBRET Fold Response (F2RL3, 1μM tracer): 1.15 |
| CN1CCN(C2=Nc3cc(Cl)ccc3Nc3ccc(CNC(=O)CCOCCOCCOCCOCCNC(=O)CCc4ccc5n4[B-](F)(F)[N+]4=C(c6ccc[nH]6)C=CC4=C5)cc32)CC1 [Clozapine-b-2-NB590] | – | – | NanoBRET Fold Response (F2RL3, 0.1μM tracer): 0.99; NanoBRET Fold Response (F2RL3, 1μM tracer): 1.05 |
| Cc1nc2n(c(=O)c1CCN1CCC(c3noc4cc(F)ccc34)CC1)CCCC2OC(=O)NCCOCCOCCOCCOCCNC(=O)CCc1ccc2n1[B-](F)(F)[N+]1=C(c3ccc[nH]3)C=CC1=C2 (stereo not shown) [Risperidone-2-NB590] | 0.98 | 0.97 | – |
